Test results as given in patent publication US11918582B2 (RAPT Therapeutics, Inc., priority 2021, dated 2024).
Structures can show the parent of a compound that is named as a salt.

Target: T1, human HPK1 (MAP4K1) (Homo sapiens, UniProt Q92918)
T1 construct: Recombinant human HPK1 kinase domain was obtained from ThermoFisher (Cat. #PV6357) and SignalChem (Cat. #M23-11G); purchased ThermoFisher; SignalChem PV6357; M23-11G
T1 sequence (Q92918 17-274 limits assumed): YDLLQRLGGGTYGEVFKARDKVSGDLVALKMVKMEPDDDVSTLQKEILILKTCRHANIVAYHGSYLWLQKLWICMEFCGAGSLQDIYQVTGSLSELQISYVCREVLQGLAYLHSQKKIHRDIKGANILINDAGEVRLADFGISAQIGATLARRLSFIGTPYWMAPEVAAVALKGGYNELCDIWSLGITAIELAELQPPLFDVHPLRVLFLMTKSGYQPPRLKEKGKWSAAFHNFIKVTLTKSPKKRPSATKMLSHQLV
Assay: Biochemical assay for activity against HPK1 (ADP-Glo, MBP substrate)
Conditions: recombinant human HPK1 kinase domain, 1 nM enzyme, ADP-Glo luminescence
Description: These compounds are made by the synthetic methods described earlier herein. Example 227 Biochemical Assay for Testing Compounds for Activity against HPK1
The enzymatic activity of human HPK1 (MAP4K1) was monitored in a biochemical assay in the presence or absence of compounds, using a peptide substrate (myelin basic protein, MBP), with an ADP-Glo assay kit (Promega, Cat. #V9103). An increase in phosphorylation of the peptide by HPK1 was indicative of its kinase activity.
Recombinant human HPK1 kinase domain was obtained from ThermoFisher (Cat. #PV6357) and SignalChem (Cat. #M23-11G). A 1 nM HPK1 kinase enzyme solution was prepared from the HPK1 stock received from the commercial supplier using an assay buffer containing 50 mM HEPES (4-(2-hydroxyethyl)-1-piperazineethanesulfonic acid) pH 7.5 (Fisher Scientific, Cat. #H1035), 150 mM NaCl (Fisher Scientific, Cat. #50843067), 3 mM TCEP-HCl (Tris(2-carboxyethyl)phosphine hydrochloride; Fisher Scientific, Cat. #PIPG82080), 10 mM MgCl2 (Fisher Scientific, Cat. #AM9530G), 0.005% Tween-20 (Fisher Scientific, Cat. #BP337500) and 0.01% BSA (bovine serum albumin; ThermoFisher, Cat. #15260037), in ultra-pure water. The final concentration of the assay buffer was 770 nM. A 5 mM stock solution of the peptide substrate was prepared using […] MBP (Myelin Basic Protein, Active Motif, Cat. #31314), 10 mM ATP (adenosine 5′-triphosphate; Sigma-Aldrich, Cat. #GE27-2056-01) and of assay buffer.
Test compounds were dissolved in DMSO (dimethyl sulfoxide) at 10 mM and then serial dilutions were prepared using a ViaFlow assist multichannel dispenser (Integra ViaFlo). 20 nL of test compounds at various concentrations were dispensed into a 1536-well assay plate (Corning Cat. #7247) using an Echo Nanoliter dispenser (Labcyte ECHO 550). […] of a 1 nM solution of HPK1 kinase enzyme diluted in assay buffer was added to the compound-containing plate using a Mantis Microliter dispenser (Formulatrix Mantis), covered with a lid, and incubated for 15 minutes at room temperature. 50 nL of a 5 mM stock solution of the peptide substrate (MBP) were added using the Echo Nanoliter dispenser. The plate was covered with a lid, centrifugated at 500 rpm for 1 minute and incubated for 2 hours at room temperature. […] of ADP-Glo reagent A was added using the Mantis Microliter dispenser, centrifugated at 500 rpm for 30 seconds and incubated for 40 minutes at room temperature. […] of ADP-Glo reagent B was added using the Mantis Microliter dispenser, centrifugated at 500 rpm for 30 seconds and incubated for 30 minutes at room temperature. Peptide phosphorylation was measured by luminescence on an Envision plate reader (PerkinElmer).
The HPK1 biochemical IC50 activity levels of the compounds of Examples 1-225 were tested using this assay and are shown in Table 2.

| SMILES | IC50 [nM] |
| --- | --- |
| COc1cc2c(cc1Nc1ncc3cnn(C4CC5(CCN(C(C)=O)CC5)C4)c3n1)CN(C)CC2 [Example 81, 1-(2-(6-((6-methoxy-2-methyl-1,2,3,4-tetrahydroisoquinolin-7-yl)amino)-1H-pyrazolo[3,4-d]pyrimidin-1-yl)-7-azaspiro[3.5]nonan-7-yl)ethan-1-one] | < 100 |
| COc1cc2c(cc1Nc1ncc3cnn([C@H]4C[C@H](CNS(=O)(=O)C5CC5)C4)c3n1)CN(C)CC2 [Example 123, N-[[3-[6-[(6-methoxy-2-methyl-3,4-dihydro-1H-isoquinolin-7-yl)amino]pyrazolo[3,4-d]pyrimidin-1-yl]cyclobutyl]methyl]cyclopropanesulfonamide] | < 100 |
| COc1cc2c(cc1Nc1ncc3c(C)nn(CC[C@H](C)O)c3n1)CN(C)CC2 [Example 90, (2S)-4-[6-[(6-methoxy-2-methyl-3,4-dihydro-1H-isoquinolin-7-yl)amino]-3-methyl-pyrazolo[3,4-d]pyrimidin-1-yl]butan-2-ol] | < 100 |
| COc1cc2c(cc1Nc1ncc3c(C)nn(C[C@@H]4CCCN4S(C)(=O)=O)c3n1)CN(C)CC2 [Example 116, (S)-6-methoxy-2-methyl-N-(3-methyl-1-((1-(methylsulfonyl)pyrrolidin-2-yl)methyl)-1H-pyrazolo[3,4-d]pyrimidin-6-yl)-1,2,3,4-tetrahydroisoquinolin-7-amine] | 100 to 250 |
| COc1cc2c(cc1Nc1ncc3cnn(C[C@@H]4CCN4C(C)=O)c3n1)CN(C)CC2 [Example 133, (S)-1-(2-((6-((6-methoxy-2-methyl-1,2,3,4-tetrahydroisoquinolin-7-yl)amino)-1H-pyrazolo[3,4-d]pyrimidin-1-yl)methyl)azetidin-1-yl)ethan-1-one] | 100 to 250 |
| COc1cc2c(cc1Nc1ncc3cnn(C4CC5(CCN(S(C)(=O)=O)CC5)C4)c3n1)CN(C)CC2 [Example 82, 6-methoxy-2-methyl-N-[1-(7-methylsulfonyl-7-azaspiro[3.5]nonan-2-yl)pyrazolo[3,4-d]pyrimidin-6-yl]-3,4-dihydro-1H-isoquinolin-7-amine] | < 100 |
| CN1CCc2ccc(Nc3ncc4cnn(C)c4n3)cc2C1 [Example 5, 2-methyl-N-(1-methylpyrazolo[3,4-d]pyrimidin-6-yl)-3,4-dihydro-1H-isoquinolin-7-amine] | < 100 |
| COc1cc2c(cc1Nc1ncc3cnn(C[C@@H]4C[C@@H]5C[C@@H]5N4C(C)=O)c3n1)CN(C)CC2 [Example 216, 1-[(1S,3S,5S)-3-[[6-[(6-methoxy-2-methyl-3,4-dihydro-1H-isoquinolin-7-yl)amino]pyrazolo[3,4-d]pyrimidin-1-yl]methyl]-2-azabicyclo[3.1.0]hexan-2-yl]ethanone] | < 100 |
| COc1cc2c(cc1Nc1ncc3cnn(C[C@@H]4[C@@H](C)CCN4C(C)=O)c3n1)CN(C)CC2 (racemic) [Example 214, 1-[2-[[6-[(6-methoxy-2-methyl-3,4-dihydro-1H-isoquinolin-7-yl)amino]pyrazolo[3,4-d]pyrimidin-1-yl]methyl]-3-methyl-pyrrolidin-1-yl]ethenone] | < 100 |
| COc1cc2c(cc1Nc1ncc3cnn([C@H]4CCC[C@H](O)C4)c3n1)CN(C)CC2 (racemic) [Example 44, rac-(trans)-3-(6-((6-methoxy-2-methyl-1,2,3,4-tetrahydroisoquinolin-7-yl)amino)-1H-pyrazolo[3,4-d]pyrimidin-1-yl)cyclohexan-1-ol] | < 100 |
| C=CCCN1CCc2ccc(Nc3ncc4cnn(CCC=C)c4n3)cc2C1 [Example 18, 2-(but-3-en-1-yl)-N-(1-(but-3-en-1-yl)-1H-pyrazolo[3,4-d]pyrimidin-6-yl)-1,2,3,4-tetrahydroisoquinolin-7-amine] | < 100 |
| COc1cc2c(cc1Nc1ncc3cnn(C[C@@H]4CCC(C)(C)N4C(C)=O)c3n1)CN(C)CC2 [Example 176, 1-[(5S)-5-[[6-[(6-methoxy-2-methyl-3,4-dihydro-1H-isoquinolin-7-yl)amino]pyrazolo[3,4-d]pyrimidin-1-yl]ymethyl]-2,2-dimethyl-pyrrolidin-1-yl]ethenone] | < 100 |
| COc1cc2c(cc1Nc1ncc3cnn([C@H]4C[C@H](CNC(C)=O)C4)c3n1)CN(C)CC2 [Example 122, N-((trans-3-(6-((6-methoxy-2-methyl-1,2,3,4-tetrahydroisoquinolin-7-yl)amino)-1H-pyrazolo[3,4-d]pyrimidin-1-yl)cyclobutyl)methyl)acetamide 2,2,2-trifluoroacetate] | < 100 |
| COc1cc2c(cc1Nc1ncc3cnn([C@H]4C[C@](C)(C(=O)OC)C4)c3n1)CN(C)CC2 [Example 70, trans-methyl 3-[6-[(6-methoxy-2-methyl-3,4-dihydro-1H-isoquinolin-7-yl)amino]pyrazolo[3,4-d]pyrimidin-1-yl]-1-methyl-cyclobutanecarboxylate] | < 100 |
| COc1cc2c(cc1Nc1ncc3cnn([C@H]4CCC[C@H](C(=O)N(C)C)C4)c3n1)CN(C)CC2 (racemic) [Example 59, rac-(trans)-3-(6-((6-methoxy-2-methyl-1,2,3,4-tetrahydroisoquinolin-7-yl)amino)-1H-pyrazolo[3,4-d]pyrimidin-1-yl)-N,N-dimethylcyclohexane-1-carboxamide] | < 100 |
| COc1cc2c(cc1Nc1ncc3cnn([C@H]4CC[C@H](CO)CC4)c3n1)CN(CCF)CC2 [Example 169, [4-[6-[[2-(2-fluoroethyl)-6-methoxy-3,4-dihydro-1H-isoquinolin-7-yl]amino]pyrazolo[3,4-d]pyrimidin-1-yl]cyclohexyl]methanol] | < 100 |
| COc1cc2c(cc1Nc1ncc3cnn(C[C@@H]4CC[C@@H](O)CN4C(C)=O)c3n1)CN(C)CC2 [Example 225, 1-((2S,5R)-5-hydroxy-2-((6-((6-methoxy-2-methyl-1,2,3,4-tetrahydroisoquinolin-7-yl)amino)-1H-pyrazolo[3,4-d]pyrimidin-1-yl)methyl)piperidin-1-yl)ethan-1-one] | < 100 |
| COc1cc2c(cc1Nc1ncc3cnn(C[C@H]4CN(C(C)=O)CCO4)c3n1)CN(C)CC2 [Example 127, (R)-1-(2-((6-((6-methoxy-2-methyl-1,2,3,4-tetrahydroisoquinolin-7-yl)amino)-1H-pyrazolo[3,4-d]pyrimidin-1-yl)methyl)morpholino)ethan-1-one trifluoroacetate] | < 100 |
| COc1cc2c(cc1Nc1ncc3cnn(C[C@@H]4CCCC[C@@H]4CO)c3n1)CN(C)CC2 (racemic) [Example 166, [rac-cis-2-[[6-[(6-methoxy-2-methyl-3,4-dihydro-1H-isoquinolin-7-yl)amino]pyrazolo[3,4-d]pyrimidin-1-yl]methyl]cyclohexyl]methanol] | < 100 |
| COc1nc2c(cc1Nc1ncc3cnn(C[C@@H]4C[C@H](F)CN4C(C)=O)c3n1)CN(C)CC2 [Example 212, 1-[(2S,4S)-4-fluoro-2-[[6-[(2-methoxy-6-methyl-7,8-dihydro-5H-1,6-naphthyridin-3-yl)amino]pyrazolo[3,4-d]pyrimidin-1-yl]methyl]pyrrolidin-1-yl]ethenone] | < 100 |
| COc1cc2c(cc1Nc1ncc3cnn([C@H]4CC[C@H](O)CC4)c3n1)CN(CCF)CC2 [Example 153, trans-4-(6-((2-(2-fluoroethyl)-6-methoxy-1,2,3,4-tetrahydroisoquinolin-7-yl)amino)-1H-pyrazolo[3,4-d]pyrimidin-1-yl)cyclohexan-1-ol] | < 100 |
| CN1CCc2c(cc(Nc3ncc4cnn([C@@H]5CCC[C@@H](C(N)=O)C5)c4n3)cc2C(F)(F)F)C1 [Example 180, (1R,3R)-3-(6-((2-methyl-5-(trifluoromethyl)-1,2,3,4-tetrahydroisoquinolin-7-yl)amino)-1H-pyrazolo[3,4-d]pyrimidin-1-yl)cyclohexane-1-carboxamide] | < 100 |
